Results from patent US20020082452A1, “alpha-sulfin-and alpha-sulfonamino acid amides” (priority 1998, published 2002).

Key:
Assay type in all cases: in vivo
[1] = system: Plasmopara viticola; assay: D-1: Action against Plasmopara viticola on vines (residual-protective and residual-curative action); details: vine seedlings, spray mixture 0.02% active ingredient, evaluated after 6 days at 95-100% relative humidity and 20° C.
Method: D-1: Action against Plasmopara viticola on Vines a) Residual-Protective Action
Vine seedlings are sprayed at the 4- to 5-leaf stage with a spray mixture (0.02% active ingredient) prepared from a wettable powder formulation of the test compound. After 24 hours, the treated plants are infected with a sporangia suspension of the fungus. Fungus infestation is evaluated after incubation for 6 days at 95-100% relative humidity and 20° C. […]
b) Residual-Curative Action
Vine seedlings are infected at the 4- to 5-leaf stage with a sporangia suspension of the fungus. After incubation for 24 hours in a humidity chamber at 95-100% relative humidity and 20° C., the infected plants are dried and sprayed with a spray mixture (0.02% active ingredient) prepared from a wettable powder formulation of the test compound. After the spray coating has dried, the treated plants are placed in the humidity chamber again. Fungus infestation is evaluated 6 days after infection. […] Compounds A1.02, A1.03, A1.04, A1.03, A1.5, A1.06, A1.07, A1.09, A1.10, A1.13, A1.14, A1.15, A1.16, A1.21, A1.23.

[2] = system: Phytophthora; assay: D-2: Action against Phytophthora on tomato plants (residual-protective and systemic action); details: spray mixture 0.02% active ingredient (sprayed or watered), evaluated after 4-5 days at 90-100% relative humidity and 20° C.
Method: D-2: Action Against Phytophthora on Tomato Plants
(§1) a) Residual-Protective Action
(§2) After a cultivation period of 3 weeks, tomato plants are sprayed with a spray mixture (0.02% active ingredient) prepared from a wettable powder formulation of the test compound. After 48 hours, the treated plants are infected with a sporangia suspension of the fungus. Fungus infestation is evaluated after incubation of the infected plants for 5 days at 90-100% relative humidity and 20° C.
as §2, with “watered” for “sprayed”, “ingredient based on the volume of the soil)” for “ingredient)”, “compound. […]” for “compound.”, “96” for “48”, “4” for “5”, “C. […] Compounds A1.02, A1.03, A1.04, A1.03, A1.05, A1.06, A1.07, A1.09, A1.10, A1.13, A1.14, A1.15, A1.16, A1.21, A1.23.” for “C.”

[3] = system: Phytophthora; assay: D-3: Action against Phytophthora on potato plants (residual-protective and systemic action); details: potato plants (Bintje variety), spray mixture 0.02% active ingredient (sprayed or watered), evaluated after 4 days at 90-100% relative humidity and 20° C.
Method: D-3 Action Against Phytophthora on Potato Plants
as §1
(§3) 2-3 week old potato plants (Bintje variety) are sprayed with a spray mixture (0.02% active ingredient) prepared from a wettable powder formulation of the test compound. After 48 hours, the treated plants are infected with a sporangia suspension of the fungus. Fungus infestation is evaluated after incubation of the infected plants for 4 days at 90-100% relative humidity and 20° C.
as §3, with “watered” for “sprayed”, “ingredient based on the volume of the soil)” for “ingredient)”, “compound. […]” for “compound.”, “C. Fungal infestation is effectively controlled with compounds of Tables 1 to 37. Compounds A1.02, A1.03, A1.04, A1.03, A1.05, A1.06, A1.07, A1.09, A1.10, A1.13, A1.14, A1.15, A1.16, A1.21, A1.23.” for “C.”

Measured: Fungus infestation

COc1cc(CCNC(=O)C(NS(C)(=O)=O)C(C)C)ccc1OC(C)COc1ccc(Cl)cc1 (mixture of isomers) [Compound A1.80]
completely inhibit fungal infestation: all assays above

C#CCC(NS(=O)(=O)CC)C(=O)NCCc1ccc(OCC=Cc2ccc(Cl)cc2)c(OC)c1 (racemic) [Compound A1.108]
completely inhibit fungal infestation: all assays above

COc1cc(CCNC(=O)[C@@H](NS(C)(=O)=O)C(C)C)ccc1OCCOc1ccc(F)cc1 [Compound A1.02]
completely inhibit fungal infestation: all assays above

COc1cc(CCNC(=O)[C@@H](NS(=O)(=O)N(C)C)C(C)C)ccc1OCCOc1ccc(F)cc1 [Compound A1.03]
completely inhibit fungal infestation: all assays above

CCC[C@H](NS(=O)(=O)CC)C(=O)NCCc1ccc(OCCOc2ccc(F)cc2)c(OC)c1 [Compound A1.04]
completely inhibit fungal infestation: all assays above

CC[C@H](NS(=O)(=O)CC)C(=O)NCCc1ccc(OCCOc2ccc(F)cc2)c(OC)c1 [Compound A1.05]
completely inhibit fungal infestation: all assays above

CCS(=O)(=O)N[C@H](C(=O)NCCc1ccc(OCCOc2ccccc2)c(OC)c1)C(C)C [Compound A1.06]
completely inhibit fungal infestation: all assays above

COc1cc(CCNC(=O)[C@@H](NS(C)(=O)=O)C(C)C)ccc1OCCOc1ccccc1 [Compound A1.07]
completely inhibit fungal infestation: all assays above

CCC[C@H](NS(=O)(=O)CC)C(=O)NCCc1ccc(OCCOc2ccccc2)c(OC)c1 [Compound A1.09]
completely inhibit fungal infestation: all assays above

CC[C@H](NS(=O)(=O)CC)C(=O)NCCc1ccc(OCCOc2ccccc2)c(OC)c1 [Compound A1.10]
completely inhibit fungal infestation: all assays above

CCS(=O)(=O)N[C@H](C(=O)NCCc1ccc(OCCOc2ccc(Cl)cc2)c(OC)c1)C(C)C [Compound A1.13]
completely inhibit fungal infestation: all assays above

COc1cc(CCNC(=O)[C@@H](NS(C)(=O)=O)C(C)C)ccc1OCCOc1ccc(Cl)cc1 [Compound A1.14]
completely inhibit fungal infestation: all assays above

CC[C@H](NS(=O)(=O)CC)C(=O)NCCc1ccc(OCCOc2ccc(Cl)cc2)c(OC)c1 [Compound A1.15]
completely inhibit fungal infestation: all assays above

CCC[C@H](NS(=O)(=O)CC)C(=O)NCCc1ccc(OCCOc2ccc(Cl)cc2)c(OC)c1 [Compound A1.16]
completely inhibit fungal infestation: all assays above

CCS(=O)(=O)N[C@H](C(=O)NCCc1ccc(OCCOc2ccccc2Cl)c(OC)c1)C(C)C [Compound A1.21]
completely inhibit fungal infestation: all assays above

CCS(=O)(=O)N[C@H](C(=O)NCCc1ccc(OCCOc2cccc(F)c2)c(OC)c1)C(C)C [Compound A1.23]
completely inhibit fungal infestation: all assays above

CCS(=O)(=O)N[C@H](C(=O)NCCc1ccc(OCCOc2ccc(C)cc2)c(OC)c1)C(C)C [Compound A1.24]
completely inhibit fungal infestation: all assays above

CCS(=O)(=O)N[C@H](C(=O)NCCc1ccc(OCCOc2cccc(C)c2)c(OC)c1)C(C)C [Compound A1.25]
completely inhibit fungal infestation: all assays above

COc1cc(CCNC(=O)[C@@H](NS(C)(=O)=O)C(C)C)ccc1OCCOc1ccc(Cl)c(Cl)c1 [Compound A1.75]
completely inhibit fungal infestation: all assays above

COc1cc(CCNC(=O)[C@@H](NS(C)(=O)=O)C(C)C)ccc1OCCOc1cccc(F)c1 [Compound A1.76]
completely inhibit fungal infestation: all assays above

COc1cc(CCNC(=O)[C@@H](NS(C)(=O)=O)C(C)C)ccc1OCCSc1ccc(Cl)cc1 [Compound A1.78]
completely inhibit fungal infestation: all assays above

CCS(=O)(=O)N[C@H](C(=O)NCCc1ccc(OCC=Cc2ccc(Cl)cc2)c(OC)c1)C1CCC1 [Compound A1.107]
completely inhibit fungal infestation: all assays above

CCS(=O)(=O)N[C@H](C(=O)NCCc1ccc(OC/C=C/c2ccc(Cl)cc2)c(OC)c1)C(C)C [Compound A2.03]
completely inhibit fungal infestation: all assays above

COc1cc(CCNC(=O)[C@@H](NS(C)(=O)=O)C(C)C)ccc1OC/C=C/c1ccc(Cl)cc1 [Compound A2.04]
completely inhibit fungal infestation: all assays above

CCS(=O)(=O)N[C@H](C(=O)NCCc1ccc(OC/C=C/c2ccccc2F)c(OC)c1)C(C)C [Compound A2.09]
completely inhibit fungal infestation: all assays above

COc1cc(CCNC(=O)[C@@H](NS(C)(=O)=O)C(C)C)ccc1OC/C=C/c1ccccc1F [Compound A2.10]
completely inhibit fungal infestation: all assays above
